Experimental data from patent US11434250B2, “Pyrazolo[1,5a]pyrimidine derivatives as IRAK4 modulators” (Genentech, Inc., priority 2017, dated 2022).
≈ marks a conversion by molar mass, not a printed value.

Tests used:
[1] = Kinetic solubility assay; type: physicochemical; details: for solubility kinetic at 24 h: PBS buffer with 2% DMSO, aqueous buffer, kinetic from dmso stock, PBS buffer pH 7.4, 2% DMSO, 24 hours shaking at room temperature, UHPLC-CLND; for Fold improvement in kinetic solubility: example compound versus its matched pair phenyl compound
Description: The kinetic solubility assay started with compound DMSO stock solutions. This assay used Millipore Multiscreen 96-well filter plates for the 24 hour equilibration shaking. Samples were prepared by adding 4 μL of the 10 mM compound DMSO stock solutions into 196 μL of PBS buffer pH 7.4 in the 96-well filter plates, yielding a compound concentration of 200 μM and 2% DMSO. The filter plate was sealed with aluminum sealing film and shaken at room temperature for 24 hours at 1000 rpm. When shaking has completed, the solutions were filtered into a clean 96-well plate utilizing a vacuum manifold. After filtration, some precipitate is often observed at the bottom of the filtration plate wells. Most of the precipitates appear to be crystalline under a polarizing light microscope. The filtrate samples were diluted by a factor of 2 using PBS pH7.4 buffer and then transferred to a 384-well plate for analysis by UHPLC-CLND (CLND: Chemiluminescence nitrogen detector). 5 μL of each sample was injected twice into the UHPLC-CLND for two repeat analysis.
Samples were detected and analyzed using UV 254 nm and CLND. UV 254 nm is used primarily to confirm the sample purity but in rare cases, is also used to quantify the concentration of compounds with no nitrogens, where additional work is done to create a compound specific calibration curve. The identification of CLND target peaks of each compound were confirmed by LCMS. Sample quantification was accomplished by CLND peak intensity, the calibration curve, and the number of nitrogen contained in the compound. One calibration curve of caffeine was used for solubility quantitative determination. A fresh calibration curve was created for every batch. The number of nitrogens in a compound used for this quantification was corrected for the actual configuration of the nitrogen in the compound.

[2] = Plasma protein binding using rapid equilibrium dialysis (RED); type: in vitro ADME; details: pH 7.4, human plasma, 37° C., read-out: Human PPB (converted)
Description: Plasma protein binding was measured in duplicate using rapid equilibrium dialysis (RED) device ((Thermo Scientific Pierce) in a 96-well format. Briefly, 10.0 μL drug or control compounds (0.5 mM in DMSO) was mixed with 1000 μL plasma (pH adjusted to 7.4) from various species (BioreclamationIVT). Aliquots of 300 μL drug/plasma mixture were placed into the donor side chamber of a single-use RED plate, and 500 μL aliquots of PBS buffer were placed into the adjacent chamber as the receiver side. The plate was incubated on an orbital shaker at 400 rpm, at 37° C. for 4 hours. After completion of incubation, 50 μL aliquots from the PBS buffer side were mixed with 5 μL of blank plasma matrix, and 5 μL from the donor side (plasma) were mixed with 50 μL blank PBS buffer. All samples were then crashed with 200 μL acetonitrile (containing internal standard) to precipitate plasma proteins. The samples were centrifuged at 3750 rpm for 10 min to pellet the proteins. The supernatants were carefully transferred to a fresh 96-well plate, and diluted with an equivalent volume of water. The samples were then analyzed by LC-MS/MS (ABI 4000, ABI Sciex). Data acquisition and processing was performed with Analyst 1.6.1 and Multiquant 2.1. The percent of protein binding and fraction unbound (fu) in matrix was calculated from taking the ratio of responses (peak areas) on the receiver side (buffer) to those on the donor side (plasma). The ratios were normalized to the internal standard.

[3] = target: human IRAK4 (Homo sapiens (Human), UniProt Q9NWZ3); assay: IRAK4 enzymatic assay (Transcreener fluorescence polarization, ADP detection); type: biochemical; details: recombinant full-length IRAK4; 125 uM ATP; 90 min
Chain of human IRAK4 (Q9NWZ3 whole entry, the tested form may be a part): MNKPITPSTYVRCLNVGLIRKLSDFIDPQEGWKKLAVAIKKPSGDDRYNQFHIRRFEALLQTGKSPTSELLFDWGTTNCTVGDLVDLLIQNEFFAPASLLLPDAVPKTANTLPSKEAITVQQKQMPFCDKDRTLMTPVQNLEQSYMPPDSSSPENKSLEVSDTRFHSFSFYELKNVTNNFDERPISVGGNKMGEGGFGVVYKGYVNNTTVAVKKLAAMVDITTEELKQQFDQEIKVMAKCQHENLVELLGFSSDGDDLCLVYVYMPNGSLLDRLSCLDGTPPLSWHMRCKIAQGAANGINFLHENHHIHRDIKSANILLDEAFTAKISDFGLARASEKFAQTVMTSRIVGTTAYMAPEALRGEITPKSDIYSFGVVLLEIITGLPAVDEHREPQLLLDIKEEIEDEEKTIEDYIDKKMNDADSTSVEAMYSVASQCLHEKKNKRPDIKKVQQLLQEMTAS
Description: Compounds were assayed for inhibition of human IRAK4 and IRAK1 catalytic activity using recombinant enzyme produced from insect cells. Full-length IRAK4 protein, carrying an N-terminal His6-Tag, was obtained from Life Technologies (Carlsbad, Calif., USA). The IRAK1 construct was produced internally and was comprised of IRAK1 residues Arg194 to Ser712, preceded by an NH2-terminal His6 tag and the coding sequence for glutathione-S-transferase.
Kinase activities were assayed using the Transcreener-Fluorecescence polarization platform (BelBrook Labs, Madison, Wis., USA) that measures amounts of the reaction product, ADP. […] Final IRAK4 assay conditions were 1.25 nM IRAK4; 125 uM ATP; 10 uM MgC2; 125 uM peptide in reaction buffer (25 mM HEPES (pH7.4); 2 mM Dithiothreitol; 0.015% Brij-35; and 0.5% dimethyl sulfoxide. The IRAK1 activity was optimized similarly, yielding final assay conditions of […] IRAK1; 62.5 uM ATP; 5 uM MgCl2, and 62.5 uM IRAK1 peptide in reaction buffer for 60 min.
Assays of compounds for kinase inhibition were performed using inhibitors serially-diluted in dimethyl sulfoxide, which was accomplished with a LabCyte Echo 555 liquid dispenser. 384 well assay plates spotted with compound received 4 ul of a 2× substrate (ATP+peptide) mix in reaction buffer, followed by 4 ul of 2× enzyme diluted in reaction buffer. Reactions were halted at 60 (IRAK1) or 90 (IRAK4) min by addition of 6 ul of detection buffer, containing EDTA ([…] final concentration), 0.95 ug of the ADP-binding antibody ADP2, ADP tracer (3 nM final concentration), and […] HEPES. Following a 1 hr incubation, fluorescence polarization of the ADP2-antibody::TRACER complex was read on a Tecan M1000 plate reader using a 635/20 excitation filter in combination with a 670/20 emission filter. Delta milli-P values were analyzed using Genedata software to fit dose-response curves and compute compound Ki values, using ATP Km values of 642 um and 83.2 uM for IRAK4 and IRAK1, respectively. Table 3 provides IRAK4 Ki values for representative compounds of the present invention.

Row | Structure (SMILES) | solubility kinetic at 24 h [1] | Fold improvement in kinetic solubility [1] | fraction unbound at 4 h, 5 µM [2] | Ki [3]
1 | CC1(C)Cc2cc(NC(=O)c3cnn4cccnc34)c(N3CCN(CC(N)=O)CC3)nc2O1 [Example 6, N-[6-[4-(2-amino-2-oxo-ethyl)piperazin-1-yl]-2,2-dimethyl-3H-furo[2,3-b]pyridin-5-yl]pyrazolo[1,5-a]pyrimidine-3-carboxamide] | 143 µM (≈ 64.4 µg/mL) | 14.6 | 0.226 | 4 nM
2 | C[C@]1(CO)Cc2cc(NC(=O)c3cnn4cccnc34)c(N3CCN(CC(F)F)CC3)nc2O1 (stereo in doubt) [Example 21, N-[rac-(2R)-6-[-(2,2-difluoroethyl)piperazin-l-yl]-2-(hydroxymethyl)-2-methyl-3H-furo[2,3-b]pyridin-5-yl]pyrazolo[1,5-a]pyrimidine-3-carboxamide] | 124 µM (≈ 58.7 µg/mL) | 27.0 | 0.363 | 13 nM
